Values quoted from earlier work in US20090252834A1, “Compositions comprising glucose anti-metabolites” (priority 2004, published 2009).

What was measured:
[1] = tested on: isolated rat hepatocytes; conditions: cited from earlier work
[2] = high doses; cited from earlier work
[3] = tested on: rodents; conditions: long-term; cited from earlier work
[4] = in contrast with 2-deoxy-D-glucose; cited from earlier work
[5] = tested on: rats; conditions: cited from earlier work
[6] = tested on: rats; conditions: by injection, in rats; cited from earlier work
[7] = injected into a rat; cited from earlier work

OC[C@H]1O[C@H](CO)[C@@H](O)[C@@H]1O [2,5-Anhydro-D-mannitol, 2,5-anhydro-D-mannitol]
glucose formation and utilization [1]: interfere in glucose formation and utilization

O=CC[C@@H](O)[C@H](O)[C@H](O)CO [2-deoxy-D-glucose]
side effects and toxicity [2]: significant untoward side effects and toxicity have been observed
metabolic hallmarks of caloric restriction (reduced body temperature, weight loss, lower fasting insulin levels) [3]: can mimic some of the major metabolic hallmarks of caloric restriction

CO[C@@H]([C@H](O)[C@H](O)CO)[C@@H](O)C=O [3-O-methylglucose]
metabolism of the glucose analog [4]: not metabolized
responses to administration compared with 2-deoxyglucose [5]: about seven times weaker

O=C[C@H](O)[C@@H](O)[C@H](O)[C@H](S)CO [5-Thioglucose, 5-thio-D-glucose]
LD50 [6]: 14000 mg/kg
5-thioglucose excreted unchanged in urine [7]: 97%
